Measured values reported in US20250221410A1, “SUBSTITUTED 2-C-AZINES AND SALTS THEREOF, AND USE THEREOF AS HERBICIDAL ACTIVE SUBSTANCES” (BAYER AKTIENGESELLSCHAFT, priority 2022, published 2025).

How the values were obtained:
Assay type in all cases: in vivo
KCHSC: Kochia scoparia [1] = assay: Post-emergence herbicidal efficacy at 1280 g/ha, KCHSC; conditions: visual rating about 3 weeks after treatment vs untreated controls
Procedure, shortened: (§1)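 Read-out is visual percent activity relative to untreated controls (100% = plants died, 0% = no effect), scored about 3 weeks after treatment. Application was post-emergence at the one-leaf stage in the greenhouse, as WP or EC in water with 0.5% additive at 600 L/ha.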

[2] = tested on: ABUTH: Abutilon theophrasti; assay: Post-emergence herbicidal efficacy at 1280 g/ha, ABUTH; conditions: rated visually after about 3 weeks vs untreated controls, 100% = plants have died, 0% = like control plants
Procedure, shortened: as §1

[3] = tested on: DIGSA: Digitaria sanguinalis; assay: Post-emergence herbicidal efficacy at 1280 g/ha, DIGSA; conditions: rated visually after about 3 weeks vs untreated controls, 100% = plants have died, 0% = like control plants
Procedure, shortened: as §1

[4] = tested on: DIGSA: Digitaria sanguinalis; assay: Pre-emergence herbicide efficacy at 1280 g/ha, DIGSA; conditions: visual scoring after about 3 weeks vs untreated controls
Procedure, shortened: (§2)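 Efficacy is a visual percentage rating against untreated controls, taken about 3 weeks after soil-surface application to freshly sown, soil-covered seeds in sandy loam.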

[5] = tested on: AMARE: Amaranthus retroflexus; assay: Post-emergence herbicidal efficacy at 1280 g/ha, AMARE; conditions: rated visually after about 3 weeks vs untreated controls, 100% = plants have died, 0% = like control plants
Procedure, shortened: as §1

VERPE: Veronica persica [6] = assay: Post-emergence herbicidal efficacy at 1280 g/ha, VERPE; conditions: visual rating about 3 weeks after treatment vs untreated controls
Procedure, shortened: as §1

LOLRI: Lolium rigidum [7] = assay: Post-emergence herbicidal efficacy at 1280 g/ha, LOLRI; conditions: visual rating about 3 weeks after treatment vs untreated controls
Procedure: (§3) Seeds of mono- and dicotyledonous weed plants were placed in plastic pots in sandy loam soil (doubly sown with in each case one species of mono- or dicotyledonous weed plants per pot), covered with soil and cultivated in a greenhouse under controlled growth conditions. 2 to 3 weeks after sowing, the test plants were treated at the one-leaf stage. The compounds of the invention, formulated in the form of wettable powders (WP) or as emulsion concentrates (EC), were applied to the green parts of the plants as aqueous suspension or emulsion with addition of 0.5% additive at a water application rate equivalent to 600 litres per hectare. After the test plants had been kept in the greenhouse under optimum growth conditions for about 3 weeks, the activity of the preparations was rated visually in comparison to untreated controls. For example, 100% activity=the plants have died, 0% activity=like control plants. Tables A1 to A12 below show the effects of selected compounds of the general formula (I) according to Table 1 on various harmful plants and at an application rate corresponding to 1280 g/ha, which were obtained by the trial procedure specified above.

SETVI: Setaria viridis [8] = assay: Pre-emergence herbicide efficacy at 1280 g/ha, SETVI; conditions: visual scoring vs untreated controls
Procedure, shortened: as §2

LOLRI: Lolium rigidum [9] = assay: Pre-emergence herbicide efficacy at 1280 g/ha, LOLRI; conditions: visual scoring after about 3 weeks vs untreated controls
Procedure, shortened: as §2

VIOTR: Viola tricolor [10] = assay: Post-emergence herbicidal efficacy at 80 g/ha, VIOTR; conditions: visual rating about 3 weeks after treatment vs untreated controls
Procedure: (§4) Seeds of monocotyledonous and dicotyledonous weeds and crop plants were placed in sandy loam in plastic or organic planting pots, covered with soil and cultivated in a greenhouse under controlled growth conditions. 2 to 3 weeks after sowing, the test plants were treated at the one-leaf stage. The compounds of the invention, formulated in the form of wettable powders (WP) or as emulsion concentrates (EC), were then sprayed onto the green parts of the plants as aqueous suspension or emulsion with addition of 0.5% additive at a water application rate of 600 l/ha (converted). After the test plants had been kept in the greenhouse under optimum growth conditions for about 3 weeks, the activity of the preparations was rated visually in comparison to untreated controls. For example, 100% activity=the plants have died, 0% activity=like control plants. Tables B1 to B10 below show the effects of selected compounds of the general formula (I) according to Table 1 on various harmful plants and an application rate corresponding to 80 g/ha, which were obtained by the experimental procedure mentioned above.

VERPE: Veronica persica [11] = assay: Post-emergence herbicidal efficacy at 80 g/ha, VERPE; conditions: visual rating about 3 weeks after treatment vs untreated controls
Procedure, shortened: (§5)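 Visual percent activity versus untreated plants (100% = plants died) was scored roughly 3 weeks after treatment. Plants grew in greenhouse pots of sandy loam and got a post-emergence spray at one-leaf stage: WP or EC compound with 0.5% additive, 600 l/ha water.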

[12] = tested on: ALOMY: Alopecurus myosuroides; assay: Pre-emergence herbicide efficacy at 1280 g/ha, ALOMY; conditions: visual scoring after about 3 weeks vs untreated controls
Procedure, shortened: as §2

[13] = tested on: ALOMY: Alopecurus myosuroides; assay: Post-emergence herbicidal efficacy at 1280 g/ha, ALOMY; conditions: rated visually after about 3 weeks vs untreated controls, 100% = plants have died, 0% = like control plants
Procedure: as §3

POAAN: Poa annua [14] = assay: Pre-emergence herbicide efficacy at 1280 g/ha, POAAN; conditions: visual scoring after about 3 weeks vs untreated controls
Procedure, shortened: as §2

[15] = tested on: ECHCG: Echinochloa crus-galli; assay: Pre-emergence herbicide efficacy at 1280 g/ha, ECHCG; conditions: visual scoring after about 3 weeks vs untreated controls
Procedure, shortened: as §2

POAAN: Poa annua [16] = assay: Post-emergence herbicidal efficacy at 1280 g/ha, POAAN; conditions: visual rating about 3 weeks after treatment vs untreated controls
Procedure, shortened: as §1

[17] = tested on: ECHCG: Echinochloa crus-galli; assay: Post-emergence herbicidal efficacy at 1280 g/ha, ECHCG; conditions: rated visually after about 3 weeks vs untreated controls, 100% = plants have died, 0% = like control plants
Procedure, shortened: as §1

[18] = tested on: AMARE: Amaranthus retroflexus; assay: Pre-emergence herbicide efficacy at 1280 g/ha, AMARE; conditions: visual scoring after about 3 weeks vs untreated controls
Procedure, shortened: as §2

SETVI: Setaria viridis [19] = assay: Post-emergence herbicidal efficacy at 1280 g/ha, SETVI; conditions: visual rating about 3 weeks after treatment vs untreated controls
Procedure, shortened: as §1

STEME: Stellaria media [20] = assay: Post-emergence herbicidal efficacy at 1280 g/ha, STEME; conditions: visual rating about 3 weeks after treatment vs untreated controls
Procedure, shortened: as §1

VERPE: Veronica persica [21] = assay: Pre-emergence herbicide efficacy at 1280 g/ha, VERPE; conditions: visual scoring vs untreated controls
Procedure, shortened: as §2

KCHSC: Kochia scoparia [22] = assay: Pre-emergence herbicide efficacy at 1280 g/ha, KCHSC; conditions: visual scoring after about 3 weeks vs untreated controls
Procedure, shortened: as §2

KCHSC: Kochia scoparia [23] = assay: Post-emergence herbicidal efficacy at 80 g/ha, KCHSC; conditions: visual rating about 3 weeks after treatment vs untreated controls
Procedure: as §4

VIOTR: Viola tricolor [24] = assay: Pre-emergence herbicide efficacy at 80 g/ha, VIOTR; conditions: scored visually after about 3 weeks
From the text: Seeds of monocotyledonous and dicotyledonous weed plants and crop plants were placed in plastic or organic planting pots and covered with soil. The compounds of the invention, formulated in the form of wettable powders (WP) or as emulsion concentrates (EC), were then applied to the surface of the covering soil as aqueous suspension or emulsion with addition of 0.5% additive at a water application rate equivalent to 600 l/ha. After the treatment, the pots were placed in a greenhouse and kept under good growth conditions for the test plants. After about 3 weeks, the efficacy of the preparations was scored visually in comparison with untreated controls as percentages. For example, 100% activity=the plants have died, 0% activity=like control plants. Tables D1 to D12 below show the effects of selected compounds of the general formula (I) according to Table 1 on various harmful plants and an application rate corresponding to 80 g/ha, which were obtained by the experimental procedure mentioned above.

STEME: Stellaria media [25] = assay: Pre-emergence herbicide efficacy at 1280 g/ha, STEME; conditions: visual scoring vs untreated controls
Procedure, shortened: as §2

[26] = tested on: MATIN: Matricaria inodora; assay: Pre-emergence herbicide efficacy at 1280 g/ha, MATIN; conditions: visual scoring after about 3 weeks vs untreated controls
Procedure, shortened: as §2

[27] = tested on: AMARE: Amaranthus retroflexus; assay: Post-emergence herbicidal efficacy at 80 g/ha, AMARE; conditions: visual rating about 3 weeks after treatment vs untreated controls
Procedure, shortened: as §5

[28] = tested on: ABUTH: Abutilon theophrasti; assay: Pre-emergence herbicide efficacy at 1280 g/ha, ABUTH; conditions: visual scoring after about 3 weeks vs untreated controls
Procedure, shortened: as §2

## Fc1ccc(Oc2c(Cc3ncc(Cl)cn3)cccc2C(F)(F)F)cc1 [Example 1-40]
KCHSC: Kochia scoparia [1]
  Post-emergence efficacy against KCHSC: 100%
[2]
  Post-emergence efficacy at 1280 g/ha against ABUTH in %: 100%
[3]
  Post-emergence efficacy at 1280 g/ha against DIGSA in %: 90%
[4]
  Pre-emergence efficacy against DIGSA: 100%
[5]
  Post-emergence efficacy at 1280 g/ha against AMARE in %: 100%
VERPE: Veronica persica [6]
  Post-emergence efficacy against VERPE: 100%
LOLRI: Lolium rigidum [7]
  Post-emergence efficacy against LOLRI: 100%
SETVI: Setaria viridis [8]
  Pre-emergence efficacy against SETVI in %: 100%
LOLRI: Lolium rigidum [9]
  Pre-emergence efficacy against LOLRI: 100%
VIOTR: Viola tricolor [10]
  Post-emergence efficacy against VIOTR: 100%
VERPE: Veronica persica [11]
  Post-emergence efficacy against VERPE: 90%
[12]
  Pre-emergence efficacy against ALOMY: 100%
[13]
  Post-emergence efficacy at 1280 g/ha against ALOMY in %: 100%
POAAN: Poa annua [14]
  Pre-emergence efficacy against POAAN: 100%
[15]
  Pre-emergence efficacy against ECHCG: 100%
POAAN: Poa annua [16]
  Post-emergence efficacy against POAAN: 90%
[17]
  Post-emergence efficacy at 1280 g/ha against ECHCG in %: 100%
[18]
  Pre-emergence efficacy against AMARE: 100%
SETVI: Setaria viridis [19]
  Post-emergence efficacy against SETVI: 90%
STEME: Stellaria media [20]
  Post-emergence efficacy against STEME: 100%
VERPE: Veronica persica [21]
  Pre-emergence efficacy against VERPE in %: 100%
KCHSC: Kochia scoparia [22]
  Pre-emergence efficacy against KCHSC: 90%
KCHSC: Kochia scoparia [23]
  Post-emergence efficacy against KCHSC: 90%
VIOTR: Viola tricolor [24]
  Pre-emergence efficacy against VIOTR in %: 100%
STEME: Stellaria media [25]
  Pre-emergence efficacy against STEME in %: 100%
[26]
  Pre-emergence efficacy against MATIN: 90%
[27]
  Post-emergence efficacy against AMARE: 90%
[28]
  Pre-emergence efficacy against ABUTH: 100%
